Experimental data as given in US7632952B2, “Benzothiazoles and the use thereof as medicaments” (Aventis Pharma S.A., priority 2004, dated 2009).
Where a name gives a salt, the structure may show the parent alone. Read-outs that look alike come from different tables or passages of the source.

Key:
HeLa = HeLa proliferation; type: cell-based; conditions: Homo sapiens, read-out: HeLa proliferation EC50 (nM) DG
CDK4/cyclin D1 = CDK4/cyclin D1 (Homo sapiens, UniProt P11802); assay: CDK4/cyclin D1 Flashplate test in 96-well format; type: biochemical
Protocol: 2. CDK4/cyclin D1 Protocol:
Purification of the CDK4-HA/cyclin D1-(His)6 Complex by IMAC (Immobilized Metal Affinity Chromatography):
Two recombinant baculoviruses bearing the human sequences coding, respectively, for CDK4-HA (C-terminal fusion with the hemaglutinin tag) and for cyclin D1-(His)6 are used to coinfect insect Sf9 cells. Sixty hours after the start of the coinfection, the cells are harvested by centrifugation and then frozen at −20° C. until the time of use.
CDK4/cyclin D1 Flashplate Test in 96-Well Format
A test in 96-well “Flashplate” plates coated with streptavidin is used to evaluate the inhibition of the CDK4/cyclin D1 kinase complex by the products of the invention. To perform this test, the biotinylated peptide substrate, a fragment of the pRb protein (biotinyl-[…]-amide) is dissolved at a concentration of 2 mM in kinase buffer (HEPES/NaOH 50 mM, NaCl 1 mM, MgCl2 5 mM, pH 7.5) in order to constitute a stock solution stored at −20° C. in the form of 110 μl aliquots. On the day of the experiment, an aliquot of this solution is thawed and diluted in kinase buffer containing 1 mM of dithiothreitol, and added to the buffer extemporaneously, in order to obtain a final peptide concentration of 2.571 μM. 70 μl of this solution are added to each well of the Flashplate in order to obtain a final substrate concentration of 1.8 μM during the enzymatic reaction, performed in a final volume of the reaction medium of 100 μl (cf. below). Intermediate dilutions of inhibitors (products of the invention) at various concentrations are prepared in DMSO from stock solutions at 10 mM in separate tubes. 1000 μM, 333.3 μM, 111.1 μM, 37.03 μM, 12.35 μM, 4.11 μM and 1.37 μM dilutions are thus prepared. 1 μl of each of these solutions (or 1 μl of DMSO for the controls) is then transferred into the wells of the test plate. Into each well are then added 19 μl of a solution of a mixture of adenosine triphosphate (ATP) and of ATPy^33P in the kinase buffer at a concentration of 5.26 μM of ATP total and 78.9 μCi/ml of ^33P. The enzymatic reaction is triggered by addition of 10 μl per well of a solution of CDK4/cyclin D1 at 250 nM in the kinase buffer containing 1 mM of dithiothreitol (or 10 μl of kinase buffer containing 1 mM of dithiothreitol for the reaction blanks).
(§1) After addition of all the reagents, the test plate is incubated at 30° C. with orbital stirring at 650 rpm. After the incubation, the plate is washed three times with 300 μl per well of PBS (phosphate-buffered saline, pH=7.4, without calcium or magnesium, reference 10010-015, Gibco BRL). The incorporation of ^33P into the substrate peptide is quantified by scintillation counting using a Packard Topcount.NXT machine. The inhibitory activity of the products of the invention is evaluated by measuring the inhibitory concentration that allows a 50% reduction in the enzymatic activity (IC50).

CDK2/cyclin E = CDK2/cyclin E (Homo sapiens, UniProt P24941); assay: CDK2/cyclin E Flashplate test in 96-well format; type: biochemical
Protocol: 1. Protocol CDK2/cyclin E:
Purification of the CDK2/cyclin E-(His)6 Complex by IMAC (Immobilized Metal Affinity Chromatography):
Two recombinant baculoviruses bearing the human sequences coding, respectively, for CDK2 and cyclin E (the latter comprising a C-terminal hexahistidine tag) are used to coinfect insect Sf21 cells. Two to three days after the start of coinfection, the cells are harvested by centrifugation and then stored at −40° C. until the time of use. After thawing and mechanical lysis of the cells, the complex present in the lysis supernatant is purified by affinity chromatography on nickel (IMAC), and stored at −80° C.
CDK2/cyclin E Flashplate Test in 96-Well Format
A format in 96-well plates coated with streptavidin is used to test the activity of the compounds on the kinase activity of CDK2/cyclin E.
To perform this test, the biotinylated peptide substrate, a fragment of the pRb protein (biotinyl-[…]-OH) is dissolved at a concentration of 1 mM in kinase buffer (HEPES/NaOH 50 mM, NaCl 1 mM, MgCl2 5 mM, pH 7.5) in order to constitute a stock solution stored at −20° C. in the form of 110 μl aliquots. On the day of the experiment, an aliquot of this solution is thawed and diluted in kinase buffer containing 1 mM of dithiothreitol, and added to the buffer extemporaneously, in order to obtain a concentration of 14.3 μM. 70 μl of this solution are added to each well of the Flashplate in order to obtain a final substrate concentration of 10 μM during the enzymatic reaction, performed in a final volume of the reaction medium of 100 μl (cf. below).
Intermediate dilutions of inhibitors (products of the invention) at various concentrations are prepared in DMSO from stock solutions at 10 mM in separate tubes. 1000 μM, 333.3 μM, 111.1 μM, 37.03 μM, 12.35 μM, 4.11 μM and 1.37 μM dilutions are thus prepared. 1 μl of each of these solutions (or 1 μl of DMSO for the controls) is transferred into the wells of the test plate.
Into each well are then added 19 μl of a solution of a mixture of adenosine triphosphate (ATP) and of ATPy^33P in the kinase buffer at a concentration of 5.26 μM of ATP total and 52.6 μCi/ml of ^33P. The enzymatic reaction is triggered by addition of 10 μl per well of a solution of CDK2/cyclin E at 200 nM in the kinase buffer containing 1 mM of dithiothreitol (or 10 μl of kinase buffer containing 1 mM of dithiothreitol for the reaction blanks).
After addition of all the reagents, the plate is incubated at 30° C. with orbital stirring at 650 rpm.
as §1, with “When” for “After addition of all”, “incubation” for “reagents, the test plate”, “complete,” for “incubated at 30° C. with orbital stirring at 650 rpm. After the incubation,”, “the” for “the substrate”

Sequence of CDK4/cyclin D1 (P11802 whole entry): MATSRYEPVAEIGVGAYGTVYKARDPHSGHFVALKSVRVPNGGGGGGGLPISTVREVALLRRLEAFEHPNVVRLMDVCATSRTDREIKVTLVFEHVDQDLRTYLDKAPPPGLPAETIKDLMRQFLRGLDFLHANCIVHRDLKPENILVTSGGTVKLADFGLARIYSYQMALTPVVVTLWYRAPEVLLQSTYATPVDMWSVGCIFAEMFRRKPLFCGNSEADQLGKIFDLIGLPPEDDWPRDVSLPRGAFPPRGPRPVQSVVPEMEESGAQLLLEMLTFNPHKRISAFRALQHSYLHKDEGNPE
Sequence of CDK4/cyclin D1 (P24385 whole entry partner): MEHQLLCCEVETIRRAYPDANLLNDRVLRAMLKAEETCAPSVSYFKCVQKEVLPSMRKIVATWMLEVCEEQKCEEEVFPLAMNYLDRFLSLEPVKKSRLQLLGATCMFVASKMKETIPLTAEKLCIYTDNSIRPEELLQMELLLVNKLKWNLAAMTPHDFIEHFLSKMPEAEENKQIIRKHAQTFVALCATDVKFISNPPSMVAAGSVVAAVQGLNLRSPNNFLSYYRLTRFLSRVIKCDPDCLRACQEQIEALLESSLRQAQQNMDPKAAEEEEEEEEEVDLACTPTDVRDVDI

CCCC(=O)Nc1nc2ccc(OS(=O)(=O)c3ccc(NCCN(C(C)C)C(C)C)cc3)cc2s1 [Example 79, 4-(2-diisopropylaminoethylamino)benzenesulfonic acid 2-butyrylaminobenzothiazol-6-yl ester hydrochloride]
EC50 (HeLa): 140 nM | IC50 (CDK4/cyclin D1): 0.07 µM | IC50 (CDK2/cyclin E; read-out: CDK2 IC50): 0.043 µM

CC(C)N(CCNc1ccc(S(=O)(=O)Oc2ccc3nc(NC(=O)CC4CCNCC4)sc3c2)cc1)C(C)C [Example 42, 4-(2-diisopropylaminoethylamino)benzenesulfonic acid 2-(2-piperid-4-ylacetylamino)benzothiazol-6-yl ester]
IC50 (CDK4/cyclin D1): 0.202 µM | IC50 (CDK2/cyclin E; read-out: CDK2 IC50): 1.14 µM

O=C(Nc1nc2ccc(OS(=O)(=O)c3ccc(F)cc3)cc2s1)C1CC1 [Example 7, 4-fluorobenzenesulfonic acid 2-(cyclopropane-carbonylamino)benzothiazol-6-yl ester]
EC50 (HeLa): 1580 nM | IC50 (CDK4/cyclin D1): > 10 µM | IC50 (CDK2/cyclin E; read-out: CDK2 IC50): 0.123 µM

NCC(=O)Nc1nc2ccc(OS(=O)(=O)c3cccs3)cc2s1 [Example 33b, Thiophene-2-sulfonic acid 2-(2-amino-acetylamino)benzothiazol-6-yl ester; compound with trifluoroacetic acid]
IC50 (CDK4/cyclin D1): > 10 µM | IC50 (CDK2/cyclin E; read-out: CDK2 IC50): 6.34 µM

CC(C)N(CCNc1ccc(S(=O)(=O)Oc2ccc3nc(NC(=O)C4CNC4)sc3c2)cc1)C(C)C [Example 39, 4-(2-diisopropylaminoethylamino)benzenesulfonic acid 2-[(azetidine-3-carbonyl)amino]benzothiazol-6-yl ester]
IC50 (CDK4/cyclin D1): 2.33 µM | IC50 (CDK2/cyclin E; read-out: CDK2 IC50): 3.06 µM

NCCCCCCCC(=O)Nc1nc2ccc(OS(=O)(=O)c3cccs3)cc2s1 [Example 33f, Thiophene-2-sulfonic acid 2-(8-amino-octanoylamino)benzothiazol-6-yl ester; compound with trifluoroacetic acid]
IC50 (CDK4/cyclin D1): 7.1 µM | IC50 (CDK2/cyclin E; read-out: CDK2 IC50): 1.84 µM

CC1(C)CC(Nc2ccc(S(=O)(=O)Oc3ccc4nc(NC(=O)C5CC5)sc4c3)cc2)CC(C)(C)N1[O] [Example 87, 4-(1-oxyl-2,2,6,6-tetramethylpiperidin-4-ylamino)-benzenesulfonic acid 2-(cyclopropanecarbonylamino)benzothiazol-6-yl ester]
IC50 (CDK2/cyclin E): 0.809 µM

O=C(Nc1nc2ccc(OS(=O)(=O)c3ccc(NC4CCCC4)cc3)cc2s1)C1CC1 [Example 8, 4-cyclopentylaminobenzenesulfonic 2-(cyclo-propanecarbonylamino)benzothiazol-6-yl ester]
EC50 (HeLa): 631 nM | IC50 (CDK4/cyclin D1): 0.899 µM | IC50 (CDK2/cyclin E; read-out: CDK2 IC50): 0.086 µM

CC(C)(O)CNc1ccc(S(=O)(=O)Oc2ccc3nc(NC(=O)C4CCNCC4)sc3c2)cc1 [Example 5, 4-(2-hydroxy-2-methylpropylamino)benzene-sulfonic acid 2-[(piperidine-4-carbonyl)amino]benzothiazol-6-yl ester]
IC50 (CDK4/cyclin D1): 3.97 µM | IC50 (CDK2/cyclin E; read-out: CDK2 IC50): 0.995 µM

CNCC(=O)Nc1nc2ccc(OS(=O)(=O)c3cccs3)cc2s1 [Example 33c, Thiophene-2-sulfonic acid 2-(2-methylamino-acetylamino)benzothiazol-6-yl ester; compound with trifluoroacetic acid]
IC50 (CDK4/cyclin D1): > 10 µM | IC50 (CDK2/cyclin E; read-out: CDK2 IC50): 8.27 µM

CC(C)NCCNc1ccc(S(=O)(=O)Oc2ccc3nc(NC(=O)CC4CCNCC4)sc3c2)cc1 [Example 18, 4-(2-isopropylaminoethylamino)benzenesulfonic acid 2-(2-piperid-4-ylacetylamino)benzothiazol-6-yl ester hydrochloride]
IC50 (CDK4/cyclin D1): 0.48 µM | IC50 (CDK2/cyclin E; read-out: CDK2 IC50): 2.68 µM

NCCCCCCCC(=O)Nc1nc2ccc(OS(=O)(=O)c3ccc(NCCNCCO)cc3)cc2s1 [Example 22c, 4-[2-(2-hydroxyethyl-amino)ethylamino]benzene-sulfonic acid 2-(8-amino-octanoylamino)benzo-thiazol-6-yl ester hydro-chloride]
IC50 (CDK4/cyclin D1): 1.57 µM | IC50 (CDK2/cyclin E; read-out: CDK2 IC50): 1.1 µM

O=C(CC1CCNCC1)Nc1nc2ccc(OS(=O)(=O)c3ccc(NCCNCCO)cc3)cc2s1 [Example 19c, 4-[2-(2-Hydroxyethyl-amino)ethylamino]benzene-sulfonic acid 2-(2-piperid-4-ylacetylamino)benzo-thiazol-6-yl ester hydro-chloride]
IC50 (CDK4/cyclin D1): 1.22 µM | IC50 (CDK2/cyclin E; read-out: CDK2 IC50): 5.78 µM

NCCC(=O)Nc1nc2ccc(OS(=O)(=O)c3cccs3)cc2s1 [Example 33d, Thiophene-2-sulfonic acid 2-(3-amino-propionylamino)benzothiazol-6-yl ester; compound with trifluoroacetic acid]
IC50 (CDK4/cyclin D1): 8.27 µM | IC50 (CDK2/cyclin E; read-out: CDK2 IC50): 2.95 µM

CC(C)(O)CNc1ccc(S(=O)(=O)Oc2ccc3nc(NC(=O)CCC4CCNCC4)sc3c2)cc1 [Example 84, 4-(2-hydroxy-2-methylpropylamino)benzene-sulfonic acid 2-(3-piperidin-4-ylpropionylamino)benzothiazol-6-yl ester hydrochloride]
IC50 (CDK4/cyclin D1): 0.683 µM | IC50 (CDK2/cyclin E; read-out: CDK2 IC50): 0.22 µM

CCNCCNc1ccc(S(=O)(=O)Oc2ccc3nc(NC(=O)CC4CCNCC4)sc3c2)cc1 [Example 19b, 4-(2-Ethylaminoethyl-amino)benzenesulfonic acid 2-(2-piperid-4-ylacetyl-amino)benzothiazol-6-yl ester hydrochloride]
IC50 (CDK4/cyclin D1): 0.732 µM | IC50 (CDK2/cyclin E; read-out: CDK2 IC50): 5.47 µM

CCNCCNc1ccc(S(=O)(=O)Oc2ccc3nc(NC(=O)CCCCCCCN)sc3c2)cc1 [Example 22b, 4-(2-ethylaminoethyl-amino)benzene sulfonic acid 2-(8-aminooctanoyl-amino)benzothiazol-6-yl ester]
IC50 (CDK4/cyclin D1): 0.783 µM | IC50 (CDK2/cyclin E; read-out: CDK2 IC50): 0.547 µM

O=C(CC1CCNCC1)Nc1nc2ccc(OS(=O)(=O)c3ccc(NCCCn4ccnc4)cc3)cc2s1 [Example 19a, 4-(3-Imidazol-1-ylpropyl-amino)benzenesulfonic acid 2-(2-piperid-4-ylacetyl-amino)benzothiazol-6-yl ester hydrochloride]
IC50 (CDK4/cyclin D1): 0.471 µM | IC50 (CDK2/cyclin E; read-out: CDK2 IC50): 2.72 µM
